The text below walks through data of ChEMBL document CHEMBL1201862, “PubChem BioAssay data set” (2004).

One test relates to Escherichia coli. Put plainly: microbe, parasite or virus in culture.
The next test deals with Procathepsin L (Homo sapiens, UniProt P07711). As to the kind of experiment: CTSL1 protease inhibition – biochemical, QFRET, 1536-well, counter-screen for M1/M17 aminopeptidase inhibitor project, dose response (AID 2214). (Counterscreens check selectivity or assay interference.)
A further test has as its target Aspartyl aminopeptidase (Plasmodium falciparum 3D7, UniProt Q8I2J3). As to the kind of experiment: Counterscreen for inhibitors of M1 and M17 aminopeptidases: QFRET-based biochemical high throughput dose response assay for inhibitors of the Plasmodium falciparum M18 Aspartyl Aminopeptidase (PFM18AAP). [Related PubChem assays: 1619 (Screening assay (M17LAP inhibitors).), 1445 (Screening assay (M1AAP inhibitors).)].

For a further test, the target named is T1, Leucine aminopeptidase (Plasmodium falciparum 3D7, UniProt Q8IL11).
T1 sequence (Q8IL11 whole entry): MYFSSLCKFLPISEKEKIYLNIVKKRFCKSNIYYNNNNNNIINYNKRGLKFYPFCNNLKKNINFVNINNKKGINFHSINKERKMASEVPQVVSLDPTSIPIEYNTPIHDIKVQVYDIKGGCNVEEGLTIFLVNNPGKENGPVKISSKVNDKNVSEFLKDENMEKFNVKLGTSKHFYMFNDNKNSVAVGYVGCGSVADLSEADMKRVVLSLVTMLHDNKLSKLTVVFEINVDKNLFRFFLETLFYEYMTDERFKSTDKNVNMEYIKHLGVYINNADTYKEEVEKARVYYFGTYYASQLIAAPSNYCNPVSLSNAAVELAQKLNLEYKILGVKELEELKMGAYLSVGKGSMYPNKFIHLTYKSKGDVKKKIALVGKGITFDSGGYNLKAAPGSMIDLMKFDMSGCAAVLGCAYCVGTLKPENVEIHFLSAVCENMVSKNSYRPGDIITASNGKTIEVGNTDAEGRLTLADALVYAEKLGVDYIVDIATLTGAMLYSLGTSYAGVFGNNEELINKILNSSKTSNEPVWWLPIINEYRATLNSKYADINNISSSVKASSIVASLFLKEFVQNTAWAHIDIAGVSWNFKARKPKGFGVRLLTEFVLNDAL
As to the kind of experiment: P. falciparum M17LAP inhibitors, primary screen, biochemical, fluorogenic H-Leu-NHMec substrate, 1536-well (AID 1619). It is filed as functional.

Test [1] relates to A-375. As to the kind of experiment: proliferation inhibition in MITF-low A375 cells – cell-based, cherry-pick samples, set 2, counter-screen for MITF modulator project, dose response (AID 540335). It is filed as functional. The note with it: Homo sapiens.
The nature of test [2]: blockade of melanocortin 4 receptor signaling – cell-based, plate reader, cherry pick, counter-screen for LGR2 antagonist project, dose response (AID 743444).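 Note: transfected HEK 293 cells stimulated with alpha-MSH peptide; potency of inhibitors of the alpha-MSH evoked signal.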 Format: functional.
The target in test [3] is T2, Rac GTPase-activating protein 1 (Homo sapiens, UniProt Q9H0H5).
T2 sequence (Q9H0H5 whole entry): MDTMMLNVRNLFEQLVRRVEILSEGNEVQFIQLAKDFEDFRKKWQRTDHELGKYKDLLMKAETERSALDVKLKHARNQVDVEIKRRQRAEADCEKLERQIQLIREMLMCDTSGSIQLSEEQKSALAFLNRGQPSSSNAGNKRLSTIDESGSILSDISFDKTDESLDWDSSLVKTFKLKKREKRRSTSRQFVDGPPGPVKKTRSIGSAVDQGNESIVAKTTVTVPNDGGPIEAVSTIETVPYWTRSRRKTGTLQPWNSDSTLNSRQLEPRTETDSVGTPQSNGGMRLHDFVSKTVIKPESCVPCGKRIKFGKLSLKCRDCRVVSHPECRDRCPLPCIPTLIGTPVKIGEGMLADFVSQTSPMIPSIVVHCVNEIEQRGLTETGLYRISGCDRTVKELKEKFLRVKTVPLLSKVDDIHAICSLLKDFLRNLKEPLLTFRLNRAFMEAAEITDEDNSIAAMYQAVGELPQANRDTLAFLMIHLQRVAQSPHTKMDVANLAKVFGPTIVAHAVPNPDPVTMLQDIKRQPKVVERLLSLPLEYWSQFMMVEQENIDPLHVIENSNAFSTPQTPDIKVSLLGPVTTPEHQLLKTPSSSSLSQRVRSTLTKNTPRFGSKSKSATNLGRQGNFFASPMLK
As to the kind of experiment: blockers of MgcRacGAP-driven Rac1 GTP hydrolysis – biochemical, ADP Hunter fluorescence, primary and confirmatory, confirmation (AID 624330). Format: functional.

Test [4] deals with T3, Microphthalmia-associated transcription factor (Homo sapiens, UniProt O75030).
T3 sequence (O75030 whole entry): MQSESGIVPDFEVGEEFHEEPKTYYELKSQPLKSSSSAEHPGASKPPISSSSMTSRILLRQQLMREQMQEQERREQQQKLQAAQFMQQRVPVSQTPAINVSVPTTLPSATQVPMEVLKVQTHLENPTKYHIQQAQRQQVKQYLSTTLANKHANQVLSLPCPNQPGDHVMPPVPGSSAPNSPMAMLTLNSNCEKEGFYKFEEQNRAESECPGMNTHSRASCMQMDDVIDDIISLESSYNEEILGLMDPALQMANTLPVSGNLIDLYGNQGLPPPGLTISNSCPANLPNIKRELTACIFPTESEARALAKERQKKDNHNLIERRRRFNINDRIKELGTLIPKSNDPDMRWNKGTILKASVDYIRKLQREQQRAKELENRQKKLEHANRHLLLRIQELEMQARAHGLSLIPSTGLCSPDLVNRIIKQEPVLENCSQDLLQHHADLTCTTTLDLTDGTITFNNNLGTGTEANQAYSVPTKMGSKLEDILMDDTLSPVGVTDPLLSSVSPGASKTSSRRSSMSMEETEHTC
As to the kind of experiment: reducers of TRPM1 reporter luminescence, concentration series – cell-based, SK-MEL-5, cherry-picked, set 3, MITF inhibitor project, dose response (AID 493073).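 Note: SK-MEL-5 melanoma cells with luciferase driven by the MITF target TRPM1 promoter.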 It is filed as functional.

A short description of test [5]: viability loss in HeLa cells – cytotoxicity control for MgcRacGAP inhibitor project, dose response (AID 624300). Format: functional.
Test [6] is described as follows: A549 cell cytotoxicity, dose response, cytotoxicity control, plate reader, cherry-pick, antagonist series (AID 743412). Format: functional, cell-based.
The nature of another test: cells. It is filed as functional.
Test [7] concerns the target T4, Ubiquitin-conjugating enzyme E2 N (Homo sapiens, UniProt P61088).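 Note: Dose-response confirmation in a TR-FRET assay detecting UBC13-driven polyubiquitin chain formation, inhibition measured.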
T4 sequence (P61088 whole entry): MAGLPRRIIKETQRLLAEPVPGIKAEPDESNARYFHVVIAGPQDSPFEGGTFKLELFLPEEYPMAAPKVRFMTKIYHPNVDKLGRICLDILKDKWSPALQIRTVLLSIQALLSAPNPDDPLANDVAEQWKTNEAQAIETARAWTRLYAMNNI
It is filed as functional.

The nature of test [8]: blockers of bursicon-stimulated LGR2 cAMP reporter – cell-based, HEK293, CRE-luciferase reporter, cherry pick, set 2, dose response (AID 743343).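 Note: transfected cells were stimulated with diluted bursicon conditioned medium after compound addition.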 Format: functional. (In a reporter assay the amount or activity of a reporter protein is the signal.)
The nature of test [9]: toxicity toward HepG2 liver cells – cell-based, plate reader, cherry-pick, antagonist series, cytotoxicity control, dose response (AID 743416). Format: functional.
Test [10] in a line: HepG2 cell cytotoxicity, dose response, cytotoxicity control for non-replicating M. tuberculosis project (AID 489018). It is filed as functional. The note with it: Mycobacterium tuberculosis.
The nature of test [11]: Vero E6 cell cytotoxicity, dose response, cytotoxicity control for non-replicating M. tuberculosis project, secondary assay (AID 492998). It is filed as functional, VeroE6. The note with it: Vero C1008.
Test [12] in a line: viability loss in HEK293 cells – cell-based, plate reader, cherry-picked samples, cytotoxicity control, dose response (AID 743446). It is filed as functional.
Test [13] can be described thus: THP-1 cell cytotoxicity, dose response, cytotoxicity control for non-replicating M. tuberculosis project (AID 489025). Format: functional.
A further test has as its system Candida albicans. As to the kind of experiment: Candida growth inhibition combined with fluconazole – CaCi-2 strain, Alamar Blue, dry powder, set 3, dose response (AID 488907). It is filed as functional, organism-based. For orientation: Alamar Blue is a resazurin reagent that responds to reducing activity.
Test [14] addresses T5, Histone-lysine N-methyltransferase NSD2 (Homo sapiens, UniProt O96028).
T5 sequence (O96028 whole entry): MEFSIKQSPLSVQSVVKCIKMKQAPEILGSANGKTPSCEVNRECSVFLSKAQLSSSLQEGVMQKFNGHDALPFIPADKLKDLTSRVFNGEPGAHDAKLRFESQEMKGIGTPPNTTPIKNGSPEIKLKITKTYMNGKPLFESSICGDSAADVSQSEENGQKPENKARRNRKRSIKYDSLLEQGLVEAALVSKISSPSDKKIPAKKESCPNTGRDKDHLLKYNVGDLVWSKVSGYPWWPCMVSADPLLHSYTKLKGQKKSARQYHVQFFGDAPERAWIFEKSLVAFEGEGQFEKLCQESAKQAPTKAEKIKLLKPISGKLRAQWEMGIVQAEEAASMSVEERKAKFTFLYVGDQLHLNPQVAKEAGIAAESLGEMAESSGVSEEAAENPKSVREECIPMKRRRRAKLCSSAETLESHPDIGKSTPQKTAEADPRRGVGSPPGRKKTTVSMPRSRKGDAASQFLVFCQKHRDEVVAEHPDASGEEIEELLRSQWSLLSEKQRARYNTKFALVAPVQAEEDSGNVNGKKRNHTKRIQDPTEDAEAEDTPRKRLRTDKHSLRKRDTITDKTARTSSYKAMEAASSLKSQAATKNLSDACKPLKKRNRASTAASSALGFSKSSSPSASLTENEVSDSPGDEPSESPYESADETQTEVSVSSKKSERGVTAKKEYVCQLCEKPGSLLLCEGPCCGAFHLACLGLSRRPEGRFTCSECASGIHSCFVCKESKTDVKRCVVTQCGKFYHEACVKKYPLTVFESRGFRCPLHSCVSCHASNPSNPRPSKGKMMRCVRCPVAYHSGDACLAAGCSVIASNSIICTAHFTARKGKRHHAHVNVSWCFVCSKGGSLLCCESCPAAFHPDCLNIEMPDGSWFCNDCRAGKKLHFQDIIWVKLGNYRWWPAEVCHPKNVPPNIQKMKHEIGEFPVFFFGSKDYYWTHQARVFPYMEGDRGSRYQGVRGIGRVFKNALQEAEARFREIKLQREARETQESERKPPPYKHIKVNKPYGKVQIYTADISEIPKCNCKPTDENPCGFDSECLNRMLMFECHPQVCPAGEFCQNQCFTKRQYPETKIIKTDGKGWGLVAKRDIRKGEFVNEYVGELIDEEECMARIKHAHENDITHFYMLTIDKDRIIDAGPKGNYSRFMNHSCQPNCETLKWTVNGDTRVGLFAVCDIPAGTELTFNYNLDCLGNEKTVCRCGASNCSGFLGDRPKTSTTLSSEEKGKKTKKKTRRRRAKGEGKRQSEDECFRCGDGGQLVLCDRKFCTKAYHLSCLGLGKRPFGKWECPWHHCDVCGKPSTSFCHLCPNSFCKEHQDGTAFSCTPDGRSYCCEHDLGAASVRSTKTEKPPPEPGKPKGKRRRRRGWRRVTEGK
Format: biochemical.

A short description of test [15]: microbe, parasite or virus in culture. It is filed as functional. The settings on record: Mycobacterium tuberculosis.
Test [16] deals with A-375. Put plainly: MITF: Counter assay: A375 proliferation Measured in Cell-Based System Using Plate Reader - 2084-03_Inhibitor_Dose_DryPowder_Activity. [Related pubchem assays (depositor defined):AID488944]. Format: functional. The settings on record: Homo sapiens.
A further test relates to Jurkat. As to the kind of experiment: SAR Analysis of small molecule inhibitors of T-cell specific antigen receptor-induced NF-kB activation in a Jurkat cell line using a luminescence assay - Set 2. [Related pubchem assays (depositor defined):AID435003, AID435012, AID465]. Format: functional, cell-based. The note with it: Homo sapiens.
The subject of test [17] is HEK293. Put plainly: SAR Analysis of small molecule inhibitors of T-cell specific antigen receptor-induced NF-kB activation in a HEK-293T cell line using a luminescence assay - Set 2. [Related pubchem assays (depositor defined):AID435003, AID435012, AID489026]. Format: functional, cell-based. The settings on record: Homo sapiens.
Test [18] relates to HEK293. Put plainly: HEK293T cell viability loss, resazurin readout – resazurin fluorescence, cytotoxicity control for NF-kB activator project, SAR follow-up (AID 493251). It is filed as functional, cell-based. The settings on record: Homo sapiens.

Each structure is given as a SMILES string. Activity calls are given as the source filed them.

Sequence of Aspartyl aminopeptidase (Q8I2J3 whole entry): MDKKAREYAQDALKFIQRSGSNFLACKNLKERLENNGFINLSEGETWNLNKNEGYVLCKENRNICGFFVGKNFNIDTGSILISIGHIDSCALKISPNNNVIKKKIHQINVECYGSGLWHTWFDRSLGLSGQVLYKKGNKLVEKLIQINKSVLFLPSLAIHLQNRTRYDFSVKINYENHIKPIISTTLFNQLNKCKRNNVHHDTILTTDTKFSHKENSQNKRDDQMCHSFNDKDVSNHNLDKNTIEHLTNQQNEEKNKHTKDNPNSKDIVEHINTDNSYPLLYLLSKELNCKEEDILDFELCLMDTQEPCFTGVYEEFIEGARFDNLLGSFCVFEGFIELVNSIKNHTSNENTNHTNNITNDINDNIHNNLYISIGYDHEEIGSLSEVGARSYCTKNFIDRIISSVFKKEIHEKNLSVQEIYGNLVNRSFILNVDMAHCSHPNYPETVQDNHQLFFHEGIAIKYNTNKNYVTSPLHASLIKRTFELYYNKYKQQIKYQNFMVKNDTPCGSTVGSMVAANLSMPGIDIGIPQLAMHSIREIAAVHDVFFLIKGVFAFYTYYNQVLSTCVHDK
Sequence of Procathepsin L (P07711 whole entry): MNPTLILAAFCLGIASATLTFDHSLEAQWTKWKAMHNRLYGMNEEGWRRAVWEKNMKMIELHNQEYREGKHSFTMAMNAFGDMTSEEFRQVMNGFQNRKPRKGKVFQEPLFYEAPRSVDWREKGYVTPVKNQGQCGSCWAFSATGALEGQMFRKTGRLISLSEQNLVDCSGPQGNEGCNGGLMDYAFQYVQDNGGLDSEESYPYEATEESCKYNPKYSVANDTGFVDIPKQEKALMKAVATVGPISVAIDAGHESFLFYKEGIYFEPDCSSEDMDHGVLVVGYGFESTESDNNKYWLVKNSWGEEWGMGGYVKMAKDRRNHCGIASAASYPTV

For `COc1ccc2nc(SCC(=O)Nc3cc(OC)c(OC)cc3C(=O)O)c(C)cc2c1`, the AC50 with Escherichia coli was 27.6 µM (active). Also, the IC50 against Procathepsin L was > 59.6 µM (not active); on Aspartyl aminopeptidase, > 73.5 µM (not active); on Leucine aminopeptidase, < 1 µM (active).

For the molecule `CC(C)(c1ccccc1)c1ccc(OCC(O)CNC2CCN(Cc3ccccc3)CC2)cc1` (stereo unspecified), the AC50 with A-375 [1] was 18.1 µM (active); in test [2], 6.77 µM (active); in [4] it was 7.94 µM (active); in [6], 6.42 µM (active); in test [8], 10.5 µM (active); in [9], 4.23 µM (active). For the same molecule, in test [12], the AC50 was 8.12 µM (active). Also, the values for the IC50 (in test [3]; in “cells”; in test [7]) were 50.6 µM (active), 5.15 µM (active) and > 20 µM (inactive), respectively. Further, the CC50 was 17.6 µM (active) in test [5], 6.65 µM (active) in test [10], 5.72 µM (active) in [11] and 6.44 µM (active) in [13].

For `N#Cc1cccnc1N1CCN(C(=O)c2ccc(Cl)cc2)CC1`, the AC50 in the test with Candida albicans was 0.611 µM (active).

Regarding `CC1C/C(=C\c2cccnc2)C(=O)/C(=C/c2cccnc2)C1` (stereo unspecified), the AC50 was 19 µM (active) in [14], 2.66 µM (active) in test [4] and 21.5 µM (active) in the test on A-375 [16]. In [15], the CC50 was 15.3 µM (active).

`CCOc1ccc(-c2nc(CS(=O)(=O)CC(=O)NCc3ccc(F)cc3)c(C)o2)cc1`: the values for the IC50 in the test with Jurkat, in the test on HEK293 [17] and in the test with HEK293 [18] were > 79 µM (inactive), > 80 µM (inactive) and > 80 µM (inactive), respectively.

Usually AC50 stands for the midpoint of the concentration-response curve, whichever way the signal moves. The term IC50 denotes the midpoint of a concentration-inhibition curve.
